# Experimental data as given in paper PMC6154314, “Evaluation of the Mycobactericidal Effect of Thio-functionalized Carbohydrate Derivatives” (Molecules : A Journal of Synthetic Chemistry and Natural …, 2017).
# “Also recorded” adds a separate entry of the source. Read-outs that look alike come from different tables or passages of the source.
# How the values were obtained:
# [1] = tested on: Mycobacterium tuberculosis H37Rv strain (Mtb); assay: Susceptibility of M. tuberculosis in broth culture (OD600 and CFU analysis); format: cell-based; conditions: for MIC50 anti-Mtb (OD) / MIC50: M. tuberculosis H37Rv, broth culture, 96 h; for Bactericidal activity against M. tuberculosis (in words): tested at 1–0.25 mM, OD600; for MIC50: Mycobacterium tuberculosis
# [2] = Lipophilicity, octanol/water partition coefficient (LogP); format: physicochemical
# Protocol: The most important parameter of drug candidates is lipophilicity, which determines water solubility, absorption and often cytotoxicity. The lipophilicity of the synthesized compounds was measured as the partition (P) or distribution (D) coefficient. The octanol/water partition/distribution coefficient is a widely used parameter for measuring lipophilicity. The Log P value is the ratio of the concentrations of a neutral substance in two immiscible phases: water and octan-1-ol. Log D is the log partition at a particular pH, and it is usually reserved for partition coefficients measured under conditions in which the solute is partially or completely ionized in the aqueous phase. For all compounds used in this work, the LogP and cLogP values were determined (Table 4). Each compound was also analysed by TLC (thin layer chromatography) and ^1H-NMR to verify its purity. All synthesized and tested compounds were analytically pure. Complete characterization of the products was performed by NMR spectroscopy and HR-MS techniques to confirm their purity and molecular structures.
# Escherichia coli = assay: Broth microdilution susceptibility test (CLSI), E. coli; format: cell-based; conditions: for MIC50: Escherichia coli, read-out: MIC50 anti-E. coli
# Staphylococcus aureus = assay: Broth microdilution susceptibility test (CLSI), S. aureus; format: cell-based; conditions: for MIC50: Staphylococcus aureus, read-out: MIC50 anti-S. aureus
# [3] = tested on: Mycobacterium tuberculosis in human monocyte-derived macrophages; assay: Bactericidal effect against intracellularly growing tubercle bacilli in human monocyte-derived macrophages (CFU); format: cell-based; conditions: Mtb-infected human MDMs; for Inhibition of growth of intracellularly deposited tubercle bacilli (in words): 48 h, compounds at MIC50 concentrations
# [4] = tested on: human monocyte-derived macrophages (MDMs); conditions: MTT, 48 h, uninfected MDMs; 50, 30, 30, 25 µM for 6, 16A, 20, 23
# bacterium = tested on: bacterium; parameters: method as in PMID 387415, PMID 16707680; conditions: as low as; after siderophore-dependent uptake and intracellular activation; cited from earlier work
# [5] = microdilution, Mueller-Hinton broth, 18 h, OD600
# [6] = read by OD600, read-out: MIC50 anti-Mtb (OD)
# [7] = read by CFU, read-out: MIC50 anti-Mtb (CFU)
Molecule,"MIC50 [1, 6]",logP [2],MIC50 (Escherichia coli; [5]),MIC50 (Staphylococcus aureus; [5]),also measured
5-thio-D-glucose pentaacetate [Compound 1],,,,,MIC50 anti-Mtb (OD) ([1]; read by OD600): MIC50 > 1 mM/OD; Bactericidal activity against M. tuberculosis (in words) [1]: not bactericidal; logP ([2]; octanol/water): −0.51
6-thio-β-D-fructopyranose [Compound 2],,,,,MIC50 anti-Mtb (OD) ([1]; read by OD600): MIC50 > 1 mM/OD; Bactericidal activity against M. tuberculosis (in words) [1]: not bactericidal; MIC50 anti-E. coli (Escherichia coli; [5]): MIC50 > 2 mM/E. coli MIC50 > 2 mM/S. aureus; MIC50 anti-S. aureus (Staphylococcus aureus; [5]): MIC50 > 2 mM/E. coli MIC50 > 2 mM/S. aureus; logP ([2]; octanol/water): −1.36
"OC[C@@]12CO[C@H](O1)[C@H](O)[C@@H](O)[C@H]2O [Compound 3, 1,6-anhydro-5-C-hydroxymethyl-α-L-altro-pyranose]",> 1000 µM,-2.38,,,Bactericidal activity against M. tuberculosis (in words) [1]: not observed
"OC1C(O)C(O)C2(CO2)C(O)C1O (centres unmarked) [Compound 4, 2-C-methylene-myo-inositol oxide]",> 1000 µM,-3.22,,,Bactericidal activity against M. tuberculosis (in words) [1]: not active
"CS(=O)(=O)NC[C@H]1OC[C@H](O)[C@@H](O)[C@@H]1O [Compound 5, 1,5-anhydro-6-deoxy-6-methanesulfamido-D-glucitol]",> 1000 µM,-3.6,> 2000 µM,> 2 mM,Bactericidal activity against M. tuberculosis (in words) [1]: not active
CC(=O)OC[C@H]1O[C@@H](S[C@@H]2CC(=O)[C@@H]3OC[C@H]2O3)[C@H](OC(C)=O)[C@@H](OC(C)=O)[C@@H]1OC(C)=O [Compound 6],,-1.13,5000 µM,2.5 mM,"MIC50 [1, 7]: 50 µM; Inhibition of growth of intracellularly deposited tubercle bacilli (in words) [3]: able to inhibit the growth; also recorded: significantly inhibit the growth; OD[570nm] ± SD [4]: 2.163 ± 0.054"
"O=C1C[C@@H](S[C@@H]2O[C@H](CO)[C@@H](O)[C@H](O)[C@H]2O)[C@H]2CO[C@@H]1O2 [Compound 7, 1,6-anhydro-3-deoxy-4-S-β-D-glucopyranosyl-D-glycero-hexopyranos-2-ulose]",,-2.05,> 10000 µM,> 10 mM,"MIC50 [1, 7]: 500 µM; Fold increase of the concentration (MIC50) needed to inhibit Mtb relative to compound 6 [1]: 10 times"
"O=C(O)c1ccccc1S[C@@H]1CC(=O)[C@@H]2OC[C@H]1O2 [Compound 8, 1,6-anhydro-3-deoxy-4-S-β-salicylyl-D-glycero-hexopyranos-2-ulose]",,1.28,> 10000 µM,> 10 mM,"MIC50 [1, 7]: 200 µM; Fold increase of the concentration (MIC50) needed to inhibit Mtb relative to compound 6 [1]: 4 times"
CC(=O)OC[C@H]1O[C@@H](S[C@@H]2CC(=O)[C@@H]3OC[C@H]2O3)[C@H](OC(C)=O)[C@@H](OC(C)=O)[C@H]1OC(C)=O [Compound 9],> 150 µM,-1.13,,,Fold increase of the concentration (MIC50) needed to inhibit Mtb relative to compound 6 [1]: at least 3 times
"CC(=O)N[C@H]1CO[C@H](CO)[C@@H](O)[C@@H]1O [Compound 10, 2-acetamido-2-dexy-1,5-anhydro-D-mannitol]",> 1000 µM,-2.75,> 10000 µM,> 10 mM,
"CC1(C)O[C@H]2O[C@H](C3CO3)[C@H](O)[C@H]2O1 (stereo partly drawn) [Compound 11, 1,2-O-isopropylidene-5,6-anhydro-D-glucofuranose]",750 µM,-0.39,,,
"COCC(OC(C)=O)[C@H]1O[C@@H]2OC(C)(C)O[C@@H]2[C@H]1OC(C)=O (stereo partly drawn) [Compound 12, 1,2-O-isopropylidene-3,5-di-O-acetyl-6-methoxy-D-glucofuranose]",> 1000 µM,-0.2,> 5000 µM,> 10 mM,
"O=[N+]([O-])CC1(O)O[C@H](CO)[C@@H](O)[C@H](O)[C@H]1O (stereo partly drawn) [Compound 13, 1-C-nitromethyl-D-gluco-pyranose]",> 1000 µM,-4.22,> 10000 µM,> 10 mM,
"NC(=S)NN=C1C=C[C@H]2CO[C@@H]1O2 [Compound 14, 1,6-anhydro-3,4-dideoxy-α-D-glycero-hex-3-enopyranos-2-thiosemicarbazone]",350 µM,-0.18,> 5000 µM,> 5 mM,
"NC(=S)NN=C1CC[C@H]2CO[C@@H]1O2 [Compound 14A, 1,6-anhydro-3,4-dideoxy-α-D-glycero-hexopyranos-2-thiosemicarbazone]",> 1000 µM,-0.29,> 2500 µM,> 1.25 mM,
CC(=O)OC[C@H]1O[C@@H](O[C@H]2[C@H](OC(C)=O)[C@@H](OC(C)=O)[C@H](S[C@@H]3CC(=NNC(N)=S)[C@@H]4OC[C@H]3O4)O[C@@H]2COC(C)=O)[C@H](OC(C)=O)[C@@H](OC(C)=O)[C@H]1OC(C)=O [Compound 16A],,,,> 1.25 mM,"MIC50 [1, 7]: 30 µM; Concentration inhibiting the growth of E. coli (Escherichia coli): below 1 mM; MIC50 (Escherichia coli; microdilution, Mueller-Hinton broth, 18 h, OD600, printed in µM): > 150 µM; Inhibition of growth of intracellularly deposited tubercle bacilli (in words) [3]: able to inhibit the growth; Decrease of the number of intracellularly growing mycobacteria ([3]; MOI 1:10, 48 h, compound at MIC (30 µM for 16A), CFU vs untreated control): ~61%"
CC(=O)OC[C@H]1O[C@@H](O[C@H]2[C@H](OC(C)=O)[C@@H](OC(C)=O)[C@H](S[C@@H]3CC(=O)[C@@H]4OC[C@H]3O4)O[C@@H]2COC(C)=O)[C@H](OC(C)=O)[C@@H](OC(C)=O)[C@H]1OC(C)=O [Compound 16],500 µM,-2.18,> 5000 µM,> 5 mM,Fold increase of the concentration (MIC50) needed to inhibit Mtb relative to compound 6 [1]: 10 times
CC(=O)OC[C@H]1O[C@@H](O[C@H]2[C@H](OC(C)=O)[C@@H](OC(C)=O)[C@H](SC34CC5CC(CC(C5)C3)C4)O[C@@H]2COC(C)=O)[C@H](OC(C)=O)[C@@H](OC(C)=O)[C@H]1OC(C)=O [Compound 19],500 µM,,,,
"Nc1nnc(S[C@@H]2CC(=O)[C@@H]3OC[C@H]2O3)s1 [Compound 23, (1R,2R,5R)-2-((5-amino-1,3,4-thiadiazol-2-yl)-thio)-6,8-dioxabicyclo[3.2.1]octan-4-one]",,1.37,> 1250 µM,> 0.625 mM,"MIC50 [1, 7]: 25 µM; Concentration inhibiting the growth of E. coli (Escherichia coli): below 1 mM; Concentration inhibiting the growth of S. aureus (Staphylococcus aureus): ≤ 1 mM; Inhibition of growth of intracellularly deposited tubercle bacilli (in words) [3]: able to inhibit the growth; also recorded: significantly inhibit the growth; melting point: 140 to 142 °C; OD[570nm] ± SD [4]: 2.428 ± 0.031"
"O=C1C[C@@H](SC2=NCCS2)[C@H]2CO[C@@H]1O2 [Compound 26, (1R,2R,5R)-2-((4,5-dihydrothiazol-2-yl)-thio)-6,8-dioxabicyclo[3.2.1]octan-4-one]",,1.13,> 2500 µM,> 2.5 mM,"MIC50 [1, 7]: 50 µM; Concentration inhibiting the growth of E. coli (Escherichia coli): below 1 mM; Inhibition of growth of intracellularly deposited tubercle bacilli (in words) [3]: able to inhibit the growth; melting point: 127 to 129 °C"
albomycin,,,,,MIC (bacterium): 8 nM
